Measurements from US20170348322A1, “BK Channels as Non-Genomic Estrogen Targets for Overactive Bladder” (priority 2016, published 2017).

Assays:
BK channels [1] = target: T1, BK channels (Homo sapiens, UniProt Q12791+Q16558); assay: Single BK channel recordings, inside-out excised membrane patches of DSM cells; format: biochemical; details: 17β-estradiol 100 nM, n=9, N=7
T1 construct: Human single DSM cells were enzymatically isolated as previously described; endogenous in cells; host or cells: freshly-isolated human detrusor smooth muscle (DSM) cells from open bladder surgery specimens
Description: (§1) Patch-clamp electrophysiological experiments: Patch-clamp experiments were performed as previously described. […]
(§2) The current disclosure applied the amphotericin B-perforated whole cell patch-clamp technique to record transient BK currents (TBKCs), depolarization-induced steady-state whole cell BK currents, and the resting membrane potential (RMP) of human freshly-isolated DSM cells. TBKCs in DSM cells were recorded at the holding potential of −20 mV. […] Single BK channel activity was recorded from inside-out excised membrane patches using symmetrical K^+ (140 mM) solutions, at a holding potential of −60 mV (Vh=−60 mV). […]
(§3) Solutions and drugs: Ca^2+-free dissection solution contained (in mM): 80 monosodium glutamate, 55 NaCl, 6 KCl, 10 glucose, 10 HEPES,2 MgCl2, and the pH was adjusted to 7.3 with NaOH. […] Extracellular and patch-pipette solutions for single BK channel recordings contained (in mM): 140 KCl, 1.08 MgCl2, 5 EGTA, 10 HEPES, and 3.16 CaCl2, adjusted to pH 7.2 with NaOH (Ca^2+ free concentration was calculated ˜300 nM with WEBMAXC Standard, http://www.stanford.edu/˜cpatton/webmaxcS.htm, Chris Patton). […]

[2] = tested on: human DSM isolated strips; assay: Isometric tension recordings: nerve-evoked (EFS-induced) contractions of DSM isolated strips; format: cell-based; details: 17β-estradiol 100 nM; in particular at lower stimulation frequencies (0.5-20.0 Hz); n=7, N=3; P<0.05
Description: (§4) Isometric DSM tension recordings: Isometric DSM tension recordings of human DSM isolated strips (˜7-8 mm long and ˜4-5 mm wide) were conducted as previously described (Hristov K L, Chen M, Kellett W F, Rovner E S, and Petkov G V. Large-conductance voltage- and Ca2+-activated K+ channels regulate human detrusor smooth muscle function. Am J Physiol Cell Physiol 301: C903-912, 2011; Hristov K L, Parajuli S P, Soder R P, Cheng Q, Rovner E S, and Petkov G V. Suppression of human detrusor smooth muscle excitability and contractility via pharmacological activation of large conductance Ca2+-activated K+ channels. Am J Physiol Cell Physiol 302: C1632-1641, 2012).
as §3

human DSM cells = assay: Resting membrane potential (RMP) of DSM cells, current-clamp; format: cell-based
Description: (§5) Patch-clamp electrophysiological experiments: Patch-clamp experiments were performed as previously described. (Hristov K L, Chen M, Kellett W F, Rovner E S, and Petkov G V. Large-conductance voltage- and Ca2+-activated K+ channels regulate human detrusor smooth muscle function. Am J Physiol Cell Physiol 301: C903-912, 2011; Hristov K L, Parajuli S P, Soder R P, Cheng Q, Rovner E S, and Petkov G V. Suppression of human detrusor smooth muscle excitability and contractility via pharmacological activation of large conductance Ca2+-activated K+ channels. Am J Physiol Cell Physiol 302: C1632-1641, 2012; Malysz J, Rovner E S, and Petkov G V. Single-channel biophysical and pharmacological characterizations of native human large-conductance calcium-activated potassium channels in freshly isolated detrusor smooth muscle cells. Pflugers Arch 465: 965-975, 2013; Parajuli S P, Hristov K L, Cheng Q P, Malysz J, Rovner E S, and Petkov G V. Functional link between muscarinic receptors and large-conductance Ca2+-activated K+ channels in freshly isolated human detrusor smooth muscle cells. Pflugers Arch 467: 665-675, 2015.)
The current disclosure applied the amphotericin B-perforated whole cell patch-clamp technique to record transient BK currents (TBKCs), depolarization-induced steady-state whole cell BK currents, and the resting membrane potential (RMP) of human freshly-isolated DSM cells. TBKCs in DSM cells were recorded at the holding potential of −20 mV. Depolarization-induced steady-state whole cell BK currents were elicited by holding the DSM cells at −70 mV and then brief, 200 ms depolarization steps were applied from −40 mV to +80 mV in increments of 20 mV. Single BK channel activity was recorded from inside-out excised membrane patches using symmetrical K^+ (140 mM) solutions, at a holding potential of −60 mV (Vh=−60 mV). The electrochemical driving force for K^+ in these experimental conditions was +60 mV (VDV=60 mV). Paxilline (1 μM), a selective BK channel inhibitor was used to dissect their functional role in mediating 17β-estradiol induced effects on DSM function. All patch-clamp experiments were conducted at room temperature (22-23° C.).
as §3

pig DSM isolated strips = details: 17β-estradiol 30 μM; cited from earlier work
BK channels [3] = target: T1, BK channels; assay: Transient BK currents (TBKCs), perforated whole cell patch-clamp, freshly-isolated DSM cells; format: cell-based; details: 17β-estradiol 100 nM, holding potential −20 mV
Excerpt: as §5, with “DSM single cell isolation: Human single DSM cells” for “Patch-clamp electrophysiological experiments: Patch-clamp experiments”, “enzymatically isolated” for “performed”, “2012;” for “2012; Malysz J, Rovner E S, and Petkov G V. Single-channel biophysical and pharmacological characterizations of native human large-conductance calcium-activated potassium channels in freshly isolated detrusor smooth muscle cells. Pflugers Arch 465: 965-975, 2013;”, “2015.) […]” for “2015.)”
as §2

BK channels [4] = target: T1, BK channels; assay: Depolarization-induced steady-state whole cell outward BK currents, amphotericin B-perforated patch-clamp, freshly-isolated DSM cells; format: cell-based
Excerpt: as §5, with “DSM single cell isolation: Human single DSM cells” for “Patch-clamp electrophysiological experiments: Patch-clamp experiments”, “enzymatically isolated” for “performed”, “2012;” for “2012; Malysz J, Rovner E S, and Petkov G V. Single-channel biophysical and pharmacological characterizations of native human large-conductance calcium-activated potassium channels in freshly isolated detrusor smooth muscle cells. Pflugers Arch 465: 965-975, 2013;”
as §1, §2

rat DSM isolated strips = details: 17β-estradiol 30 μM; cited from earlier work
[5] = tested on: human DSM isolated strips; assay: Isometric tension recordings: spontaneous phasic contractions of DSM isolated strips; format: cell-based
Description: Human DSM specimen collection: The study forming the basis for the current disclosure was conducted according to protocol Pro00045232, reviewed and approved by the Medical University of South Carolina Institutional Review Board. […] The DSM tissue samples were obtained during open bladder surgeries performed for a variety of indications such as bladder cancer, including radical cystectomy for urothelial carcinoma, and adenocarcinoma. In such cases, the collected DSM tissue was remote from the site of tumor. DSM strips were dissected from the bladder specimens, and after removing the urothelial and lamina propria layers, the strips were used for single DSM cell isolation and isometric DSM tension recordings.
as §4
Solutions and drugs: Ca^2+-free dissection solution contained (in mM): 80 monosodium glutamate, 55 NaCl, 6 KCl, 10 glucose, 10 HEPES,2 MgCl2, and the pH was adjusted to 7.3 with NaOH. For the functional studies on human DSM contractility, the physiological saline solution had the following composition (in mM): 119 NaCl, 4.7 KCl, 24 NaHCO3, 1.2 KH2PO4, 2.5 CaCl2, 1.2 MgSO4, and 11 D-glucose, aerated with 95% O2-5% CO2 (pH 7.4). Extracellular (bath) solution used for the perforated whole cell patch-clamp experiments contained (in mM): 134 NaCl, 6 KCl, 1 MgCl2, 2 CaCl2, 10 glucose, 10 HEPES, and pH was adjusted to 7.4 with NaOH. The patch-pipette solution for the perforated patch-clamp experiments contained (in mM): 110 potassium aspartate, 30 KCl, 10 NaCl, 1 MgCl2, 10 HEPES, 0.05 EGTA, and pH was adjusted to 7.2 with NaOH. Amphotericin-B stock solution was prepared daily in dimethyl sulfoxide (DMSO) and was added to the pipette solution (200 μg/ml) before the experiment and was replaced every 1-2 h. Extracellular and patch-pipette solutions for single BK channel recordings contained (in mM): 140 KCl, 1.08 MgCl2, 5 EGTA, 10 HEPES, and 3.16 CaCl2, adjusted to pH 7.2 with NaOH (Ca^2+ free concentration was calculated ˜300 nM with WEBMAXC Standard, http://www.stanford.edu/˜cpatton/webmaxcS.htm, Chris Patton). […]
Data analysis and statistics: Clampfit 10.3 (Molecular Device, Union City, Calif.) and Minianalysis software (Synaptosoft, Inc., NJ) were used to analyze the data. Mean values of the last 50 ms pulse of 200 ms depolarization step of at least 5 average files in the absence (control) and in the presence of 17β-estradiol were analyzed to evaluate the effects of 17β-estradiol on steady-state whole cell BK currents. […] Five minutes of at least an 8-10 min stable patch-clamp recording prior to application of 17β-estradiol were analyzed for control data, and the last 5 min of continuous recordings of 10-15 min after application of 17β-estradiol were analyzed to evaluate the effects of 17β-estradiol on RMP or TBKCs. […]

[6] = 17β-estradiol 100 nM-1 μM, strips pre-incubated with paxilline (1 μM), n=5, N=5, P>0.05
[7] = 17β-estradiol 1 μM, n=8, N=5, P<0.05

T1 sequence (Q12791 whole entry): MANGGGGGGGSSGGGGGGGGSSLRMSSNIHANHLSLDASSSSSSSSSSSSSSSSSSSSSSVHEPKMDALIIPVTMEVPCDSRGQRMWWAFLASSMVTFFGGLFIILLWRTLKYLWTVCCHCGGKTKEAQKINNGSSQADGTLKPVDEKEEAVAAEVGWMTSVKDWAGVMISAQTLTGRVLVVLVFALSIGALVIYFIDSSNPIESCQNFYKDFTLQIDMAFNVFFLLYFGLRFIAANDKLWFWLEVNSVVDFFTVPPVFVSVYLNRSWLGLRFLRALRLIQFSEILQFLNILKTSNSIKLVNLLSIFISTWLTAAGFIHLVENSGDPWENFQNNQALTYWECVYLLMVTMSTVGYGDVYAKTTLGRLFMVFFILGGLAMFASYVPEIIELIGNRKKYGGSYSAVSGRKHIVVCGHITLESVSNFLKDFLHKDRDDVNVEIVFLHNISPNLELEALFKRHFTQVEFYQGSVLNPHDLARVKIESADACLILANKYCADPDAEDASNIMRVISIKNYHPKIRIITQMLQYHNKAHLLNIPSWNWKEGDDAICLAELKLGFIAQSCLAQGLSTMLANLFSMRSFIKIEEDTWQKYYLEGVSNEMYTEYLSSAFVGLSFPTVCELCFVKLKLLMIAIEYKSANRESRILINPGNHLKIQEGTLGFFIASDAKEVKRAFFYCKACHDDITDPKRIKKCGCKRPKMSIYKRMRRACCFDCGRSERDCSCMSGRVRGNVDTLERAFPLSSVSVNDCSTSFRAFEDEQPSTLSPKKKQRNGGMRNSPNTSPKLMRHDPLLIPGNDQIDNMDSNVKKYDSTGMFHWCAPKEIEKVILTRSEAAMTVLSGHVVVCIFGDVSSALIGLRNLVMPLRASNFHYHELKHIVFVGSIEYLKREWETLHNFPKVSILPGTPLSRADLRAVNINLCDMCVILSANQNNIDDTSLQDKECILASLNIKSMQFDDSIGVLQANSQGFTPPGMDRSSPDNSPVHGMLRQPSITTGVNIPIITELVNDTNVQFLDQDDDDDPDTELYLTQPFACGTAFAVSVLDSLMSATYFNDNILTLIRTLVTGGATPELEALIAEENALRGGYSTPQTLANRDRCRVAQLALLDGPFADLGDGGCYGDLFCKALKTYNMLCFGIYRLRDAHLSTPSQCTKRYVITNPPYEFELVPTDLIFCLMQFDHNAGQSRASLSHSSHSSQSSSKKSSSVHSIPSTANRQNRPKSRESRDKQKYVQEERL
T1 sequence (Q16558 whole entry): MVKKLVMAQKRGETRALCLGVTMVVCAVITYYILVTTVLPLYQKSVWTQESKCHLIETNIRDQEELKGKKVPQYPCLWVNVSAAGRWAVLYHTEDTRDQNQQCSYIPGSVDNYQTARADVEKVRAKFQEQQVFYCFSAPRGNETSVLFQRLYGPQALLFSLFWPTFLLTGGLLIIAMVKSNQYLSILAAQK

SMILES	single BK channel open probability (NPo) (BK channels [1]; Vh=−60 mV, control 0.086±0.030, P<0.05)	single BK channel current amplitude (BK channels [1]; control 11.7±0.7 pA, P>0.05)	effect on EFS-induced contractions [2]	DSM cell RMP (human DSM cells; 17β-estradiol 100 nM, control −25.7±3.2 mV, n=11, N=9, P<0.05)	hyperpolarization of the DSM cell RMP (human DSM cells; 17β-estradiol 100 nM, n=11, N=9, P<0.05)	DSM cell RMP (human DSM cells; 17β-estradiol in the presence of paxilline (1 μM), n=8, N=5, P>0.05)	effect on KCl- and muscarinic receptor-induced contractions (pig DSM isolated strips)	effect on average TBKC amplitude (BK channels [3])	increase of the frequency of TBKCs (BK channels [3]; control taken as 100%, n=8, N=5, P<0.05)	effect on whole cell K+ current density (BK channels [4]; 17β-estradiol 100 nM, n=12, N=8, P<0.05)	whole cell outward K+ currents (BK channels [4]; at +80 mV, 17β-estradiol 100 nM, control 33.9±6.5 pA/pF, n=12, N=8, P<0.05)	BK current amplitude (BK channels [4]; at +80 mV, both paxilline (1 μM) and 17β-estradiol (100 nM), vs 6.1±1.7 paxilline alone, P>0.05)	effect on pharmacologically-induced and nerve-evoked contractions (rat DSM isolated strips)	effect on muscle force integral [5, 6]	effect on spontaneous phasic contraction amplitude [5, 6]	decrease of muscle force integral [5, 7]	decrease of spontaneous phasic contraction amplitude [5, 7]	effect on phasic contraction frequency ([5]; 17β-estradiol 1 μM, n=8, N=5, P>0.05)	DSM cell RMP (human DSM cells; paxilline only (1 μM), n=8, N=5)
C[C@]12CC[C@@H]3c4ccc(O)cc4CC[C@H]3[C@@H]1CC[C@@H]2O [17β-estradiol]	0.137±0.030	11.9±0.5 pA	significantly inhibited	−28.9±3.3 mV	~3 mV	−21.9±4.4 mV	inhibitory effects	without significantly altering	74.6±37.8%	significantly increased	44.5±7.8 pA/pF	6.8±1.8 pA/pF	decrease	did not affect	did not affect	44.4±13.2%	53.3±8.9%	without significantly changing	–
CC(C)(O)[C@H]1O[C@H]2CC[C@@]3(C)[C@@](O)(CC[C@H]4Cc5c([nH]c6ccccc56)[C@@]43C)C2=CC1=O [paxilline]	–	–	–	–	–	–	–	–	–	–	–	–	–	–	–	–	–	–	−22.1±4.7 mV
